Measured values as given in PubChem BioAssay (NCI).
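Briefly, cells in 96-well plates were exposed to five compound concentrations for 48 h, and endpoints were estimated by linear interpolation. GI50 = concentration required for 50% inhibition of growth. TGI: total growth inhibition.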

What was measured:
Test in all cases: NCI anticancer screen, dose series, 48 h
SK-MEL-28 melanoma = test system: SK-MEL-28 melanoma
UACC-62 melanoma = test system: UACC-62 melanoma
A498 renal = test system: A498 renal
IGROV1 ovarian = test system: IGROV1 ovarian
MDA-MB-435 = test system: MDA-MB-435
EKVX NSCLC = test system: EKVX NSCLC
DU-145 prostate = test system: DU-145 prostate
MDA-MB-231 breast = test system: MDA-MB-231 breast
UO-31 renal = test system: UO-31 renal
NCI-H226 lung = test system: NCI-H226 lung
TK-10 renal = test system: TK-10 renal
MCF7 breast = test system: MCF7 breast
HOP-62 NSCLC = test system: HOP-62 NSCLC
M14 melanoma = test system: M14 melanoma
HCT-116 colon = test system: HCT-116 colon
SR leukemia = test system: SR leukemia
K-562 leukemia = test system: K-562 leukemia
CCRF-CEM leukemia = test system: CCRF-CEM leukemia
SK-OV-3 ovarian = test system: SK-OV-3 ovarian
SNB-19 CNS = test system: SNB-19 CNS
PC-3 prostate = test system: PC-3 prostate
ACHN renal = test system: ACHN renal
SNB-75 CNS = test system: SNB-75 CNS
RPMI-8226 leukemia = test system: RPMI-8226 leukemia
OVCAR-5 ovarian = test system: OVCAR-5 ovarian
HCT-15 colon = test system: HCT-15 colon
MOLT-4 leukemia = test system: MOLT-4 leukemia
KM12 colon = test system: KM12 colon
HOP-92 NSCLC = test system: HOP-92 NSCLC
RXF 393 renal = test system: RXF 393 renal
OVCAR-3 ovarian = test system: OVCAR-3 ovarian
HT29 colon = test system: HT29 colon
HS 578T breast = test system: HS 578T breast
COLO 205 colon = test system: COLO 205 colon
UACC-257 melanoma = test system: UACC-257 melanoma
SW-620 colon = test system: SW-620 colon
BT-549 breast = test system: BT-549 breast
NCI-H522 lung = test system: NCI-H522 lung
SK-MEL-2 melanoma = test system: SK-MEL-2 melanoma
NCI/ADR-RES ovarian = test system: NCI/ADR-RES ovarian
HL-60(TB) leukemia = test system: HL-60(TB) leukemia
SK-MEL-5 melanoma = test system: SK-MEL-5 melanoma
NCI-H460 lung = test system: NCI-H460 lung
OVCAR-4 ovarian = test system: OVCAR-4 ovarian
SN12C renal = test system: SN12C renal
SF-268 CNS = test system: SF-268 CNS
T-47D breast = test system: T-47D breast
A549 NSCLC = test system: A549 NSCLC
HCC-2998 colon = test system: HCC-2998 colon
OVCAR-8 ovarian = test system: OVCAR-8 ovarian
SF-539 CNS = test system: SF-539 CNS
NCI-H23 lung = test system: NCI-H23 lung
U251 CNS = test system: U251 CNS
MALME-3M melanoma = test system: MALME-3M melanoma
LOX IMVI melanoma = test system: LOX IMVI melanoma
CAKI-1 renal = test system: CAKI-1 renal
786-0 renal = test system: 786-0 renal
SF-295 CNS = test system: SF-295 CNS

CCN1CCC(C(=O)Nc2n[nH]c3nnc(-c4cccc(F)c4F)cc23)CC1
GI50 (SK-MEL-28 melanoma): 8.35 µM | TGI (SK-MEL-28 melanoma): > 18.4 µM | GI50 (UACC-62 melanoma): 10.2 µM | TGI (UACC-62 melanoma): > 25 µM | GI50 (A498 renal): 0.543 µM | TGI (A498 renal): > 6.6 µM | GI50 (IGROV1 ovarian): > 21.4 µM | TGI (IGROV1 ovarian): > 25 µM | GI50 (MDA-MB-435): 10.5 µM | TGI (MDA-MB-435): > 25 µM | GI50 (EKVX NSCLC): 16.9 µM | TGI (EKVX NSCLC): > 25 µM | GI50 (DU-145 prostate): 10.3 µM | TGI (DU-145 prostate): 24.6 µM | GI50 (MDA-MB-231 breast): 5.51 µM | TGI (MDA-MB-231 breast): 20.3 µM | GI50 (UO-31 renal): > 25 µM | TGI (UO-31 renal): > 25 µM | GI50 (NCI-H226 lung): 3.41 µM | TGI (NCI-H226 lung): 11.9 µM | GI50 (TK-10 renal): 11.3 µM | TGI (TK-10 renal): > 25 µM | GI50 (MCF7 breast): 2.2 µM | TGI (MCF7 breast): > 12.8 µM | GI50 (HOP-62 NSCLC): 7.62 µM | TGI (HOP-62 NSCLC): > 19.3 µM | GI50 (M14 melanoma): 11.4 µM | TGI (M14 melanoma): > 25 µM | GI50 (HCT-116 colon): 7.36 µM | TGI (HCT-116 colon): > 25 µM | GI50 (SR leukemia): 9.61 µM | TGI (SR leukemia): > 25 µM | GI50 (K-562 leukemia): 8.39 µM | TGI (K-562 leukemia): > 25 µM | GI50 (CCRF-CEM leukemia): 6.75 µM | TGI (CCRF-CEM leukemia): > 25 µM | GI50 (SK-OV-3 ovarian): 2.33 µM | TGI (SK-OV-3 ovarian): 23.4 µM | GI50 (SNB-19 CNS): 12 µM | TGI (SNB-19 CNS): > 25 µM | GI50 (PC-3 prostate): 10.1 µM | TGI (PC-3 prostate): > 25 µM | GI50 (ACHN renal): 9.68 µM | TGI (ACHN renal): > 25 µM | GI50 (SNB-75 CNS): 0.821 µM | TGI (SNB-75 CNS): > 19.3 µM | GI50 (RPMI-8226 leukemia): > 25 µM | TGI (RPMI-8226 leukemia): > 25 µM | GI50 (OVCAR-5 ovarian): 13.9 µM | TGI (OVCAR-5 ovarian): > 25 µM | GI50 (HCT-15 colon): > 25 µM | TGI (HCT-15 colon): > 25 µM | GI50 (MOLT-4 leukemia): 12.1 µM | TGI (MOLT-4 leukemia): > 25 µM | GI50 (KM12 colon): 6.1 µM | TGI (KM12 colon): > 18.2 µM | GI50 (HOP-92 NSCLC): 8.03 µM | TGI (HOP-92 NSCLC): > 23.9 µM | GI50 (RXF 393 renal): 0.403 µM | TGI (RXF 393 renal): 5.78 µM | GI50 (OVCAR-3 ovarian): 2.78 µM | TGI (OVCAR-3 ovarian): > 14.2 µM | GI50 (HT29 colon): 5.02 µM | TGI (HT29 colon): > 25 µM | GI50 (HS 578T breast): 3.68 µM | TGI (HS 578T breast): > 23.1 µM | GI50 (COLO 205 colon): 4.61 µM | TGI (COLO 205 colon): 9.17 µM | GI50 (UACC-257 melanoma): 11.9 µM | TGI (UACC-257 melanoma): > 25 µM | GI50 (SW-620 colon): 10.4 µM | TGI (SW-620 colon): > 25 µM | GI50 (BT-549 breast): 12.2 µM | TGI (BT-549 breast): > 25 µM | GI50 (NCI-H522 lung): 6.68 µM | TGI (NCI-H522 lung): > 17 µM | GI50 (SK-MEL-2 melanoma): 4.84 µM | TGI (SK-MEL-2 melanoma): 14.2 µM | GI50 (NCI/ADR-RES ovarian): > 25 µM | TGI (NCI/ADR-RES ovarian): > 25 µM | GI50 (HL-60(TB) leukemia): 8.16 µM | TGI (HL-60(TB) leukemia): 19.5 µM | GI50 (SK-MEL-5 melanoma): 1.62 µM | TGI (SK-MEL-5 melanoma): 7.46 µM | GI50 (NCI-H460 lung): 7.96 µM | TGI (NCI-H460 lung): > 25 µM | GI50 (OVCAR-4 ovarian): 7.04 µM | TGI (OVCAR-4 ovarian): 22 µM | GI50 (SN12C renal): 9.49 µM | TGI (SN12C renal): > 25 µM | GI50 (SF-268 CNS): 9.08 µM | TGI (SF-268 CNS): > 25 µM | GI50 (T-47D breast): 4.42 µM | TGI (T-47D breast): > 20.1 µM | GI50 (A549 NSCLC): 10.5 µM | TGI (A549 NSCLC): > 25 µM | GI50 (HCC-2998 colon): 16 µM | TGI (HCC-2998 colon): > 25 µM | GI50 (OVCAR-8 ovarian): 9.46 µM | TGI (OVCAR-8 ovarian): > 25 µM | GI50 (SF-539 CNS): 3.98 µM | TGI (SF-539 CNS): 18.3 µM | GI50 (NCI-H23 lung): 16.5 µM | TGI (NCI-H23 lung): > 25 µM | GI50 (U251 CNS): 6.17 µM | TGI (U251 CNS): > 25 µM | GI50 (MALME-3M melanoma): > 22.6 µM | TGI (MALME-3M melanoma): > 25 µM | GI50 (LOX IMVI melanoma): 5.59 µM | TGI (LOX IMVI melanoma): > 25 µM | GI50 (CAKI-1 renal): > 25 µM | TGI (CAKI-1 renal): > 25 µM | GI50 (786-0 renal): 6.32 µM | TGI (786-0 renal): > 25 µM | GI50 (SF-295 CNS): 5.73 µM | TGI (SF-295 CNS): > 25 µM

COc1cc(/C=C2\C[C@H]3[C@@H]4CC=C5C[C@@H](N6CCCC6)CC[C@]5(C)[C@H]4CC[C@]3(C)[C@H]2O)cc(OC)c1OC
TGI (SK-MEL-28 melanoma): 35 µM | TGI (UACC-62 melanoma): 32.7 µM | TGI (A498 renal): 30.2 µM | TGI (IGROV1 ovarian): 30 µM | TGI (MDA-MB-435): 18.5 µM | TGI (EKVX NSCLC): 30.2 µM | TGI (DU-145 prostate): 32.1 µM | TGI (MDA-MB-231 breast): 33.6 µM | TGI (UO-31 renal): 6.6 µM | TGI (NCI-H226 lung): 39.7 µM | TGI (TK-10 renal): 34.6 µM | TGI (MCF7 breast): 22 µM | TGI (HOP-62 NSCLC): 30.6 µM | TGI (M14 melanoma): 4.74 µM | TGI (HCT-116 colon): 27.6 µM | TGI (SR leukemia): > 100 µM | TGI (K-562 leukemia): > 100 µM | TGI (CCRF-CEM leukemia): > 100 µM | TGI (SK-OV-3 ovarian): 35.9 µM | TGI (SNB-19 CNS): 35.8 µM | TGI (PC-3 prostate): 28.8 µM | TGI (ACHN renal): 29.3 µM | TGI (SNB-75 CNS): 25.8 µM | TGI (RPMI-8226 leukemia): 27 µM | TGI (OVCAR-5 ovarian): 24.4 µM | TGI (HCT-15 colon): 26.5 µM | TGI (MOLT-4 leukemia): > 56.2 µM | TGI (KM12 colon): 23 µM | TGI (HOP-92 NSCLC): 25 µM | TGI (RXF 393 renal): 20.2 µM | TGI (OVCAR-3 ovarian): 31.2 µM | TGI (HT29 colon): 14.5 µM | TGI (HS 578T breast): 25.2 µM | TGI (COLO 205 colon): 36.5 µM | TGI (UACC-257 melanoma): 28.5 µM | TGI (SW-620 colon): > 61.4 µM | TGI (BT-549 breast): 30.1 µM | TGI (NCI-H522 lung): 26.7 µM | TGI (SK-MEL-2 melanoma): 35.9 µM | TGI (NCI/ADR-RES ovarian): 40.8 µM | TGI (HL-60(TB) leukemia): 21.9 µM | TGI (SK-MEL-5 melanoma): 30 µM | TGI (NCI-H460 lung): 13.6 µM | TGI (OVCAR-4 ovarian): 51.1 µM | TGI (SN12C renal): 29.6 µM | TGI (SF-268 CNS): 16.5 µM | TGI (T-47D breast): 44.6 µM | TGI (A549 NSCLC): 33.1 µM | TGI (HCC-2998 colon): 20.7 µM | TGI (OVCAR-8 ovarian): 23.4 µM | TGI (SF-539 CNS): 32.2 µM | TGI (NCI-H23 lung): 29.9 µM | TGI (U251 CNS): 28.8 µM | TGI (MALME-3M melanoma): 23.9 µM | TGI (LOX IMVI melanoma): 20.8 µM | TGI (CAKI-1 renal): 29.8 µM | TGI (786-0 renal): 10.8 µM | TGI (SF-295 CNS): 26.6 µM
